The values below come from PubChem BioAssay AID1259407 (Chemical Carcinogenesis Research Information System (CCRIS), 2018).

Calls of active or inactive are those of the source. The rule behind the calls is not given here.

This series concerns CCRIS mutagenicity, Ames/micronucleus/aberration tests. Nature of the series: CCRIS mutagenicity studies.
The mark [1] stands for this setting: Test System: AMES SALMONELLA TYPHIMURIUM, Strain/Indicator: TA98, Metabolic Activation: NONE, Method: PREINCUBATION
[2] abbreviates: Test System: AMES SALMONELLA TYPHIMURIUM, Strain/Indicator: TA100, Metabolic Activation: NONE, Method: PREINCUBATION
Setting [3] is: Test System: AMES SALMONELLA TYPHIMURIUM, Strain/Indicator: TA1535, Metabolic Activation: NONE, Method: PREINCUBATION
The mark [4] stands for this setting: Test System: AMES SALMONELLA TYPHIMURIUM, Strain/Indicator: TA98, Metabolic Activation: NONE, Method: STANDARD PLATE.
The mark [5] stands for this setting: Test System: AMES SALMONELLA TYPHIMURIUM, Strain/Indicator: TA98, Metabolic Activation: RAT, LIVER, S-9, AROCLOR 1254, Method: STANDARD PLATE.
[6] abbreviates: Test System: AMES SALMONELLA TYPHIMURIUM, Strain/Indicator: TA100, Metabolic Activation: NONE, Method: STANDARD PLATE.

With `c1ccncc1`, the mutagenic call reads like this: (Test System: AMES SALMONELLA TYPHIMURIUM, Strain/Indicator: TA98, Metabolic Activation: HAMSTER LIVER S-9, AROCLOR 1254, 10%, Method: PREINCUBATION) “inactive; negative”; under setting [1], “inactive; negative”; (Test System: AMES SALMONELLA TYPHIMURIUM, Strain/Indicator: TA98, Metabolic Activation: RAT LIVER S-9, AROCLOR 1254, 10%, Method: PREINCUBATION) “inactive; negative”; (Test System: AMES SALMONELLA TYPHIMURIUM, Strain/Indicator: TA98, Metabolic Activation: RAT LIVER S-9, PHENOBARBITAL AND BETA-NAPHTHOFLAVONE, Method: PREINCUBATION) “inactive; negative”; (Test System: AMES SALMONELLA TYPHIMURIUM, Strain/Indicator: TA98, Metabolic Activation: RAT, LIVER, S-9, AROCLOR 1254, Method: PREINCUBATION) “inactive; negative”; (Test System: AMES SALMONELLA TYPHIMURIUM, Strain/Indicator: TA100, Metabolic Activation: HAMSTER LIVER S-9, AROCLOR 1254, 10%, Method: PREINCUBATION) “inactive; negative”. The mutagenic call by setting is: under setting [2], “inactive; negative”; (Test System: AMES SALMONELLA TYPHIMURIUM, Strain/Indicator: TA100, Metabolic Activation: RAT LIVER S-9, AROCLOR 1254, 10%, Method: PREINCUBATION) “inactive; negative”; (Test System: AMES SALMONELLA TYPHIMURIUM, Strain/Indicator: TA100, Metabolic Activation: RAT LIVER S-9, PHENOBARBITAL AND BETA-NAPHTHOFLAVONE, Method: PREINCUBATION) “inactive; negative”; (Test System: AMES SALMONELLA TYPHIMURIUM, Strain/Indicator: TA100, Metabolic Activation: RAT, LIVER, S-9, AROCLOR 1254, Method: PREINCUBATION) “inactive; negative”; (Test System: AMES SALMONELLA TYPHIMURIUM, Strain/Indicator: TA102, Metabolic Activation: NONE, Method: PREINCUBATION) “inactive; negative”; (Test System: AMES SALMONELLA TYPHIMURIUM, Strain/Indicator: TA102, Metabolic Activation: RAT, LIVER, S-9, AROCLOR 1254, Method: PREINCUBATION) “inactive; negative”. Moreover, the mutagenic call is “inactive; negative” (Test System: AMES SALMONELLA TYPHIMURIUM, Strain/Indicator: TA1535, Metabolic Activation: HAMSTER LIVER S-9, AROCLOR 1254, 10%, Method: PREINCUBATION); “inactive; negative” under setting [3]; “inactive; negative” (Test System: AMES SALMONELLA TYPHIMURIUM, Strain/Indicator: TA1535, Metabolic Activation: RAT LIVER S-9, AROCLOR 1254, 10%, Method: PREINCUBATION); “inactive; negative” (Test System: AMES SALMONELLA TYPHIMURIUM, Strain/Indicator: TA1535, Metabolic Activation: RAT LIVER S-9, PHENOBARBITAL AND BETA-NAPHTHOFLAVONE, Method: PREINCUBATION); “inactive; negative” (Test System: AMES SALMONELLA TYPHIMURIUM, Strain/Indicator: TA1537, Metabolic Activation: HAMSTER LIVER S-9, AROCLOR 1254, 10%, Method: PREINCUBATION); “inactive; negative” (Test System: AMES SALMONELLA TYPHIMURIUM, Strain/Indicator: TA1537, Metabolic Activation: NONE, Method: PREINCUBATION). The mutagenic call by setting is: (Test System: AMES SALMONELLA TYPHIMURIUM, Strain/Indicator: TA1537, Metabolic Activation: RAT LIVER S-9, AROCLOR 1254, 10%, Method: PREINCUBATION) “inactive; negative”; (Test System: AMES SALMONELLA TYPHIMURIUM, Strain/Indicator: TA1537, Metabolic Activation: RAT LIVER S-9, PHENOBARBITAL AND BETA-NAPHTHOFLAVONE, Method: PREINCUBATION) “inactive; negative”; (Test System: E.COLI, Strain/Indicator: WP2UVRA, Metabolic Activation: NONE, Method: PREINCUBATION) “inactive; negative”; (Test System: E.COLI, Strain/Indicator: WP2UVRA, Metabolic Activation: RAT LIVER S-9, PHENOBARBITAL AND BETA-NAPHTHOFLAVONE, Method: PREINCUBATION) “inactive; negative”; (Test System: MOUSE LYMPHOMA, Strain/Indicator: L5178Y (TK+/TK-), Metabolic Activation: NONE, Method: SUSPENSION/PLATE) “inactive; negative”; (Test System: MOUSE LYMPHOMA, Strain/Indicator: L5178Y (TK+/TK-), Metabolic Activation: RAT LIVER S-9, AROCLOR 1254, Method: SUSPENSION/PLATE) “inactive; negative”. In addition, the mutagenic call (Test System: UDS MOUSE HEPATOCYTES, Strain/Indicator: THYMIDINE INCORPORATION, Metabolic Activation: NONE, Method: IN VIVO/AUTORADIOGRAPHY) was “inactive; negative”.
In the case of `O[C@@H]1C=CC=C[C@H]1O`, the mutagenic call (Test System: AMES SALMONELLA TYPHIMURIUM, Strain/Indicator: TA97, Metabolic Activation: NONE, Method: STANDARD PLATE) is “inactive; negative”; the mutagenic call under setting [4] is “inactive; negative”; the mutagenic call under setting [5] is “inactive; negative”; the mutagenic call under setting [6] was “inactive; negative”; the mutagenic call (Test System: AMES SALMONELLA TYPHIMURIUM, Strain/Indicator: TA1535, Metabolic Activation: NONE, Method: STANDARD PLATE) is “inactive; negative”; the mutagenic call (Test System: AMES SALMONELLA TYPHIMURIUM, Strain/Indicator: TA1535, Metabolic Activation: RAT, LIVER, S-9, AROCLOR 1254, Method: STANDARD PLATE) is “active; positive”. Further, for the setting “Test System: CHINESE HAMSTER V-79, Strain/Indicator: V-79/6-THIOGUANINE, Metabolic Activation: NONE”, the mutagenic call was “inactive; negative”.
As to `O=C1OCC(CCl)=C1Br`, under setting [6], the mutagenic call was “active; positive”.
Consider `CC(COc1ccccc1)N(CCCl)Cc1ccccc1` (stereo unspecified), for which the mutagenic call was “active; positive” (Test System: AMES SALMONELLA TYPHIMURIUM, Strain/Indicator: TA97, Metabolic Activation: HAMSTER, LIVER, S-9, AROCLOR 1254 (10%), Method: PREINCUBATION); “active; positive” (Test System: AMES SALMONELLA TYPHIMURIUM, Strain/Indicator: TA97, Metabolic Activation: NONE, Method: PREINCUBATION); “active; positive” (Test System: AMES SALMONELLA TYPHIMURIUM, Strain/Indicator: TA97, Metabolic Activation: RAT, LIVER, S-9, AROCLOR 1254 (10%), Method: PREINCUBATION); “active; positive” (Test System: AMES SALMONELLA TYPHIMURIUM, Strain/Indicator: TA98, Metabolic Activation: HAMSTER, LIVER, S-9, AROCLOR 1254 (10%), Method: PREINCUBATION); “active; positive” under setting [1]; “active; positive” (Test System: AMES SALMONELLA TYPHIMURIUM, Strain/Indicator: TA98, Metabolic Activation: RAT, LIVER, S-9, AROCLOR 1254 (10%), Method: PREINCUBATION). In addition, the mutagenic call runs as follows: (Test System: AMES SALMONELLA TYPHIMURIUM, Strain/Indicator: TA100, Metabolic Activation: HAMSTER, LIVER, S-9, AROCLOR 1254 (10%), Method: PREINCUBATION) “active; positive”; under setting [2], “active; positive”; (Test System: AMES SALMONELLA TYPHIMURIUM, Strain/Indicator: TA100, Metabolic Activation: RAT, LIVER, S-9, AROCLOR 1254 (10%), Method: PREINCUBATION) “active; positive”; (Test System: AMES SALMONELLA TYPHIMURIUM, Strain/Indicator: TA1535, Metabolic Activation: HAMSTER, LIVER, S-9, AROCLOR 1254 (10%), Method: PREINCUBATION) “active; positive”; under setting [3], “inactive; negative”; (Test System: AMES SALMONELLA TYPHIMURIUM, Strain/Indicator: TA1535, Metabolic Activation: RAT, LIVER, S-9, AROCLOR 1254 (10%), Method: PREINCUBATION) “active; positive”.
On to `C1=Cc2c3cc4ccccc4cc3cc3cccc1c23`, for which the mutagenic call is, setting by setting: under setting [4], “active; positive”; (Test System: AMES SALMONELLA TYPHIMURIUM, Strain/Indicator: TA98, Metabolic Activation: RAT, LIVER, S-9, AROCLOR 1254 (0.127 OR 1.27 MG S-9 PROTEIN), Method: STANDARD PLATE) “active; positive”.
With `CCC1(C(C)O)OC1(C(N)=O)C(=O)OC` (stereo unspecified), the mutagenic call was “inactive; negative” (Test System: AMES SALMONELLA TYPHIMURIUM, Strain/Indicator: TA98, Metabolic Activation: NONE, Method: DISK ASSAY); “inactive; negative” under setting [4]; “inactive; negative” (Test System: AMES SALMONELLA TYPHIMURIUM, Strain/Indicator: TA98, Metabolic Activation: RAT, LIVER, S-9, AROCLOR 1254, Method: DISK ASSAY); “inactive; negative” under setting [5].
